Bridge positions count the residues as written; N and C are the ends. Peptide text beside a SMILES is read from it.
Test: Cytotoxicity against Spodoptera frugiperda Sf9 cells assessed as inhibition of cell viability incubated for 24 hrs by resazurin assay
Format: toxicity, cell-based

Structure (SMILES) | CC50 at 24 h [nM]
CC(C)C[C@@H]1NC(=O)CNC(=O)[C@H](CC(N)=O)NC(=O)[C@H](CCCNC(=N)N)NC(=O)[C@H]([C@@H](C)O)NC(=O)[C@@H]2CSSC[C@@H]3NC(=O)[C@H]([C@@H](C)O)NC(=O)CNC(=O)CNC(=O)[C@H](C(C)C)NC(=O)[C@@H]4CSSC[C@H](NC(=O)[C@H]([C@@H](C)O)NC(=O)[C@H](CSSC[C@H](NC(=O)[C@H](C(C)C)NC(=O)[C@@H]5CCCN5C1=O)C(=O)NCC(=O)N[C@@H](CCC(=O)O)C(=O)N[C@@H]([C@@H](C)O)C(=O)N4)NC(=O)CNC(=O)[C@@H]1CCCN1C(=O)[C@H]([C@@H](C)O)NC(=O)[C@H](CC(N)=O)NC3=O)C(=O)N[C@@H](CO)C(=O)N[C@@H](Cc1c[nH]c3ccccc13)C(=O)N1CCC[C@H]1C(=O)N[C@@H](C(C)C)C(=O)N2 | 2310
CC[C@H](C)[C@@H]1NC(=O)[C@H](C(C)C)NC(=O)[C@H](CO)NC(=O)[C@H](CO)NC(=O)[C@H](Cc2ccccc2)NC(=O)[C@@H]2CSSC[C@@H](C(=O)N[C@@H](Cc3ccc(O)cc3)C(=O)N[C@@H](CC(N)=O)C(=O)O)NC(=O)[C@H](C(C)C)NC(=O)[C@H](CCCCN)NC(=O)[C@H](CC(N)=O)NC(=O)[C@H](CCCCN)NC(=O)[C@@H]3CSSC[C@H](NC(=O)[C@H](CO)NC(=O)[C@H](CCC(=O)O)NC(=O)CNC(=O)[C@@H](NC(=O)[C@@H]4CCCN4C(=O)[C@@H](NC(=O)[C@H](C)NC(=O)[C@H](C)N)C(C)C)CSSC[C@H](NC(=O)CNC1=O)C(=O)N[C@@H](CO)C(=O)N3)C(=O)N[C@@H](C(C)C)C(=O)N[C@@H](Cc1c[nH]c3ccccc13)C(=O)N[C@@H]([C@@H](C)CC)C(=O)N1CCC[C@H]1C(=O)N2 (H-AAVPCGESCVWIPCFSSVIGCSCKNKVCYN-OH; disulfide 5-21, 9-23, 14-28) | 160
CC(C)[C@H](NC(=O)[C@@H]1CCCN1C(=O)[C@H](C)NC(=O)CN)C(=O)N[C@H]1CSSC[C@@H]2NC(=O)CNC(=O)[C@@H]3CCCN3C(=O)[C@H]([C@@H](C)O)NC(=O)[C@H](CC(N)=O)NC(=O)[C@@H]3CSSC[C@@H](C(=O)N[C@@H](CO)C(=O)N[C@@H](CCCCN)C(=O)N[C@@H](CC(N)=O)C(=O)O)NC(=O)[C@H](C(C)C)NC(=O)[C@@H]4CCCN4C(=O)[C@H](Cc4c[nH]c5ccccc45)NC(=O)[C@@H]4CCCN4C(=O)[C@H](CC(=O)O)NC(=O)[C@H](CSSC[C@H](NC(=O)[C@H]([C@@H](C)O)NC(=O)[C@H](CCC(=O)O)NC(=O)CNC1=O)C(=O)N[C@@H](Cc1ccccc1)C(=O)NCC(=O)NCC(=O)N[C@@H]([C@@H](C)O)C(=O)N3)NC(=O)[C@H]([C@@H](C)O)NC2=O (H-GAPVCGETCFGGTCNTPGCTCDPWPVCSKN-OH; disulfide 5-19, 9-21, 14-27) | 7610
CC[C@H](C)[C@@H]1NC(=O)[C@@H]2CSSC[C@@H](C(=O)N[C@@H](Cc3ccc(O)cc3)C(=O)N[C@@H](CCCCN)C(=O)N[C@@H](CC(N)=O)C(=O)O)NC(=O)[C@H](C(C)C)NC(=O)[C@H](CCCCN)NC(=O)[C@H](CO)NC(=O)[C@H](CCCCN)NC(=O)[C@@H]3CSSC[C@H](NC(=O)[C@H](CO)NC(=O)[C@H](CCC(=O)O)NC(=O)CNC(=O)[C@@H](NC(=O)[C@@H]4CCCN4C(=O)[C@H](CC(C)C)NC(=O)[C@@H](NC(=O)CN)[C@@H](C)O)CSSC[C@H](NC(=O)CNC(=O)[C@H](C(C)C)NC(=O)[C@H](C(C)C)NC(=O)[C@H](CO)NC(=O)[C@H](CO)NC1=O)C(=O)N[C@@H](CO)C(=O)N3)C(=O)N[C@@H](C(C)C)C(=O)N[C@@H](Cc1c[nH]c3ccccc13)C(=O)N[C@@H]([C@@H](C)CC)C(=O)N1CCC[C@H]1C(=O)N2 (H-GTLPCGESCVWIPCISSVVGCSCKSKVCYKN-OH; disulfide 5-21, 9-23, 14-28) | 110
